Assays:
Assay in all cases: Antibacterial test (MIC), Gram-negative bacteria
Format in all cases: cell-based
[1] = test system: Salmonella typhimurium (ATCC 13311); conditions: Salmonella enterica, read-out: MIC
Description: (§1) As for the Gram-negative bacteria, E. coli (ATCC 10536, ATCC 25922), Klebsiella pneumonia (ATCC 10031), Proteus vulgaris (ATCC 13315), Pseudomonas aeruginosa (ATCC 9027), and Salmonella typhimurium (ATCC 13311) were used, and as for the Gram-positive bacteria, Staphylococcus aureus, MRSA (ATCC 33591), Staphylococcus epidermidis (ATCC 12228), Streptococcus pneumonia (ATCC 6301), Mycobacterium ranae (ATCC 110), and Enterococcus faecalis (VRE, ATCC 51575) were used. The various bacteria were cultured at 37° C. for 20 to 48 hours by conventional methods, and the minimum growth inhibitory concentration (MIC, μg/ml) was determined. Each of the specimens was dissolved in a 1% DMSO solution. Furthermore, amoxicillin, clarithromycin and gentamycin were used as control drugs of antibacterial substance.

[2] = test system: Proteus vulgaris (ATCC 13315); conditions: ATCC13315, read-out: MIC
Description: as §1

[3] = test system: Escherichia coli (ATCC 25922); conditions: ATCC25922, read-out: MIC
Description: as §1

[4] = test system: Escherichia coli (ATCC 10536); conditions: ATCC10536, read-out: MIC
Description: as §1

[5] = test system: Klebsiella pneumonia (ATCC 10031); conditions: Klebsiella pneumoniae, ATCC10031, read-out: MIC
Description: as §1

Measured: MIC

CCCCCOc1ccnc(CSc2nc3ccccc3[nH]2)c1C [Example 1, 2-[(4-n-pentyloxy-3-methylpyridin-2-yl)-methylthio]-1H-benzimidazole]
> 100 µg/mL: all assays above

CCCCCCOc1ccnc(CSc2nc3ccccc3[nH]2)c1C [Example 2, 2-[(4-n-hexyloxy-3-methylpyridin-2-yl)-methylthio]-1H-benzimidazole]
> 100 µg/mL: all assays above

CCCCCCCOc1ccnc(CSc2nc3ccccc3[nH]2)c1C [Example 3, 2-[(4-n-heptyloxy-3-methylpyridin-2-yl)-methylthio]-1H-benzimidazole]
> 100 µg/mL: all assays above
